Experimental data as given in ChEMBL document CHEMBL5385920, “Discovery of P450-Modified Sesquiterpenoids Levinoids A-D through Global Genome Mining” (J Nat Prod, 2024).
Active and inactive are the calls of the source. The rule behind the calls is not given here.

Tests used:
[1] = tested on: HT-22; test: Neuroprotective activity against glutamate-induced cytotoxicity in HT-22 cells assessed as increase in cell viability at 10 ug/ml measured after 24 hrs in presence of glutamate by CCK8 assay relative to control; format: functional, Mus musculus; details: dose 10 µg/ml
[2] = tested on: HT-22; test: Neuroprotective activity against glutamate-induced cytotoxicity in HT-22 cells assessed as increase in cell viability measured after 24 hrs in presence of glutamate by CCK8 assay; format: functional, cell-based; details: Mus musculus, HT-22, 24 h
[3] = tested on: HT-22; test: Neuroprotective activity against glutamate-induced cytotoxicity in HT-22 cells assessed as increase in cell viability at 10 ug/ml measured after 24 hrs in presence of glutamate by CCK8 assay; format: functional, cell-based; details: Mus musculus, dose 10.0 µg/ml

| Structure (SMILES) | Activity [1] [%] | EC50 [2] [µM] | Activity [3] |
| --- | --- | --- | --- |
| CC1=CC[C@@H](C(C)C)[C@H]2C=C(C(=O)O)CC[C@@]12O | 82 | ~21 | – |
| CC1=CC[C@@H](C(C)C)[C@H]2C=C(C(=O)O)[C@@H](O)C[C@@H]12 | – | – | inactive |
| CC1=CC[C@@H](C(C)C)[C@@]2(O)C=C(C(=O)O)CC[C@@H]12 | – | – | inactive |
| CC1=CC[C@@H](C(C)C)[C@H]2C=C(C(=O)O)CC[C@@H]12 | – | – | inactive |
